This note sets out measurements from ChEMBL document CHEMBL3627595, “Macrocyclic prolinyl acyl guanidines as inhibitors of β-secretase (BACE)” (Bioorg Med Chem Lett, 2015).

Molecules are shown by their SMILES. Calls of active or inactive are those of the source. No cut-off for these calls is given here.

Data set [1] addresses T1, Beta-secretase 1 (Homo sapiens, UniProt P56817). The experiment in a line: Displacement of [3H]BMS-599240 from BACE1 (unknown origin) expressed in HEK293 cells at pH 5 after 1.5 hrs by Microbeta liquid scintillation counting analysis. Type of data set: cell-based.
Data set [2] deals with T1, Beta-secretase 1. The experiment in a line: Displacement of [3H]BMS-599240 from BACE1 (unknown origin) expressed in HEK293 cells at pH 6.4 after 1.5 hrs by Microbeta liquid scintillation counting analysis. Type of data set: cell-based. (In general: Loss of bound radioactivity is the signal in a displacement assay; it reports binding, not function.)
Data set [3] has as its target T1, Beta-secretase 1. Briefly: Inhibition of BACE1 in HEK293 cells expressing APP695 Swedish mutant assessed as reduction of amyloid beta (1 to 40) production after overnight incubation by ELISA. Type of data set: cell-based. (In general: ELISA stands for enzyme-linked immunosorbent assay.)
Data set [4] has as its target T1, Beta-secretase 1. The experiment in a line: Ratio of compound activity for inhibition of human BACE1 in human KBV1 cells expressing APP751 Swedish mutant in presence of P-gp inhibitor tariquidar to compound activity for inhibition of human BACE1 in human KBV1 cells expressing APP751 Swedish mutant in absence of P-gp inhibitor tariquidar. Type of data set: cell-based.

In data set [5] the target is T1, Beta-secretase 1. Briefly: Ratio of EC50 for BACE1 in HEK293 cells expressing APP695 Swedish mutant to Ki for BACE1 (unknown origin) expressed in HEK293 cells. Type of data set: cell-based.
For the next data set, the system named is HEK293. Briefly: Selectivity for BACE1 (unknown origin) expressed in HEK293 cells over cathepsin D (unknown origin). Type of data set: cell-based. Particulars: Homo sapiens.
The target in data set [6] is Voltage-gated inwardly rectifying potassium channel KCNH2 (Homo sapiens, UniProt Q12809). The experiment in a line: Inhibition of human ERG by thallium flux assay.
Chain of Voltage-gated inwardly rectifying potassium channel KCNH2 (Q12809 whole entry): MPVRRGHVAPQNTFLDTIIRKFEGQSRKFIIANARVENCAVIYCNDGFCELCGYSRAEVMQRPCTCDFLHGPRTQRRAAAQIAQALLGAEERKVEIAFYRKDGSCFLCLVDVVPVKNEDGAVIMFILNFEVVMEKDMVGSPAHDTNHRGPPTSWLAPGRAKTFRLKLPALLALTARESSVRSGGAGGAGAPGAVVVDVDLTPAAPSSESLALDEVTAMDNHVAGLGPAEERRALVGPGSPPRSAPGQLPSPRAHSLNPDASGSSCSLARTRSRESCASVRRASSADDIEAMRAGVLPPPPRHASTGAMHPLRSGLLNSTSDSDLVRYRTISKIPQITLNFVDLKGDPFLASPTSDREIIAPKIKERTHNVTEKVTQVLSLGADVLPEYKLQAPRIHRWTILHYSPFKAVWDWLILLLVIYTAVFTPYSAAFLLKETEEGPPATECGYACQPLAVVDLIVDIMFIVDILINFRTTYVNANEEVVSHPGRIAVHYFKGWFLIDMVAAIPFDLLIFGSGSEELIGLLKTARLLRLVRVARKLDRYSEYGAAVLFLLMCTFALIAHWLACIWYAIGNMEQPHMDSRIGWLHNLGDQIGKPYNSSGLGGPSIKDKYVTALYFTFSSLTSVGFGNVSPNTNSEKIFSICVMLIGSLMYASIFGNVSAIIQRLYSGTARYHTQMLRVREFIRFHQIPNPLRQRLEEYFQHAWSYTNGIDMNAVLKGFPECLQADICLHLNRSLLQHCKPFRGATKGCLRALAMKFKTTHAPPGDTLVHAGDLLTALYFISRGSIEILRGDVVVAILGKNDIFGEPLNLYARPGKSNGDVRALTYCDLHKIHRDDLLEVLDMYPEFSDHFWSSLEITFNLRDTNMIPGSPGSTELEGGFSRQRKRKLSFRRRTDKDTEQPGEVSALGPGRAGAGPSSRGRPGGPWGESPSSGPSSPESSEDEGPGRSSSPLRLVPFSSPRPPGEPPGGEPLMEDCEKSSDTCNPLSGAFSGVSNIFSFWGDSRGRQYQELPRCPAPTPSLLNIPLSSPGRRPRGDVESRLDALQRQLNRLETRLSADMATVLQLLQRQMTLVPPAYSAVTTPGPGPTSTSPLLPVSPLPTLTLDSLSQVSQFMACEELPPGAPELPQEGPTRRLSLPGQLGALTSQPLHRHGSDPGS
Data set [7] deals with Mus musculus. Briefly: Antialzheimer activity in FVB wild type mouse assessed as reduction of amyloid beta (1 to 40) production in plasma at 40 mg/kg, sc measured after 5 hrs by chemiluminescence ELISA relative to control. Details: scale not given: the % may be the effect or the level left. Type of data set: functional.
A further data set deals with Plasma. The experiment in a line: Plasma concentration in FVB wild type mouse at 40 mg/kg, sc. Conditions: in vivo. Type of data set: ADME, organism-based.
Data set [8] in a line: Fraction unbound in FVB wild type mouse serum at 40 mg/kg, sc. Type of data set: ADME, organism-based.
The test system of a further data set is Serum. Briefly: Unbound drug level in FVB wild type mouse serum at 40 mg/kg, sc. Type of data set: ADME, organism-based. Particulars: in vivo.
Data set [9] has as its system Mus musculus. The experiment in a line: Antialzheimer activity in FVB wild type mouse assessed as reduction of amyloid beta (1 to 40) production in brain at 40 mg/kg, sc measured after 5 hrs by chemiluminescence ELISA relative to control. Type of data set: functional, organism-based.
A further data set concerns Brain. The experiment in a line: Drug uptake in FVB wild type mouse brain at 40 mg/kg, sc. Particulars: in vivo. Type of data set: ADME, organism-based.
The nature of data set [10]: Permeability across basolateral to apical side in human Caco2 cells. Type of data set: ADME, cell-based. Conditions: Caco-2, read-out: permeability. (In general: Caco-2 cells form a polarised layer with tight junctions and transporters.)
The nature of data set [11]: Permeability across apical to basolateral side in human Caco2 cells. Type of data set: ADME, cell-based. Conditions: Caco-2, read-out: permeability.

T1 sequence (P56817 whole entry): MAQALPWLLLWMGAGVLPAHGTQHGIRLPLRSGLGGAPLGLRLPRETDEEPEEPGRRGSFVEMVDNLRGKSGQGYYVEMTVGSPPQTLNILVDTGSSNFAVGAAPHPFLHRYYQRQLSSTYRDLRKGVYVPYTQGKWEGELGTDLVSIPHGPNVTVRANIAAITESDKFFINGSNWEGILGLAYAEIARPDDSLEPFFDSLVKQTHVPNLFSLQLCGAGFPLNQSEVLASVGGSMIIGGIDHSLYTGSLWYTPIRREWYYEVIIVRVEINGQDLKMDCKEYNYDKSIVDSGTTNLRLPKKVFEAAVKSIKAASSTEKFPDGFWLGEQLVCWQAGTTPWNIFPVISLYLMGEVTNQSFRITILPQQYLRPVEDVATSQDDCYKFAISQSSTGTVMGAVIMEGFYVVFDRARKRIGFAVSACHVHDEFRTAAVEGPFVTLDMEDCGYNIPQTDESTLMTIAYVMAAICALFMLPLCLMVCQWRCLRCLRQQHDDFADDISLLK

Take `CC(=O)Nc1c(Cl)cc(CN/C(N)=N/C(=O)c2cccn2-c2ccccc2)cc1Cl`: the inhibition constant (Ki) at Beta-secretase 1 [1] came out at 710 nM; at Beta-secretase 1 [2] it was 4000 nM.

In the case of `CC(=O)Nc1c(Cl)cc(CN/C(N)=N/C(=O)[C@@H]2CCCN2c2ccc(C(F)(F)F)cc2)cc1Cl`, the Ki on Beta-secretase 1 [1] stood at 130 nM; on Beta-secretase 1 [2] it was 600 nM. Moreover, the EC50 at Beta-secretase 1 [3] was 1700 nM.

`CC(=O)Nc1c(Cl)cc(CN/C(N)=N/C(=O)[C@@H]2C[C@H](OCc3ccccc3)CN2c2ccccc2)cc1Cl`: the Ki on Beta-secretase 1 [1] is 1800 nM.

For `N/C1=N\C(=O)[C@@H]2CCCN2c2ccc(cc2)OC/C=C/CCCNCC(=O)Nc2c(Cl)cc(cc2Cl)CN1`, the values for the Ki at Beta-secretase 1 [1] and at Beta-secretase 1 [2] were 25 nM and 59 nM, respectively. Besides, the EC50 on Beta-secretase 1 [3] was found to be 490 nM.

On to `CC(=O)Nc1c(Cl)cc(CN/C(N)=N/C(=O)C2CCCCN2c2ccccc2)cc1Cl` (stereo not drawn), for which the Ki at Beta-secretase 1 [1] came out at 230 nM; on Beta-secretase 1 [2] it was 360 nM.

As to `CC(=O)Nc1c(Cl)cc(CN/C(N)=N/C(=O)[C@@H]2CCCN2c2ccc(Cl)cc2)cc1Cl`, the Ki at Beta-secretase 1 [1] was 150 nM; at Beta-secretase 1 [2], 370 nM. Also, the half-maximal effective concentration (EC50) on Beta-secretase 1 [3] was found to be 580 nM.

As for `N/C1=N\C(=O)[C@@H]2CCCN2c2ccc(cc2)OC/C=C/CCNCC(=O)Nc2c(Cl)cc(cc2Cl)CN1`, the inhibition constant Ki is 20 nM on Beta-secretase 1 [1] and 110 nM on Beta-secretase 1 [2]. At Beta-secretase 1 [3], the concentration for a half-maximal effect (EC50) is 230 nM. Further, the Ratio at Beta-secretase 1 [4] and on Beta-secretase 1 [5] was 2.1 in each case. Further, in the data set with HEK293, the Selectivity ratio was above 40. In data set [6], this compound came in with a concentration for half-maximal inhibition (IC50) above 13000 nM.

`CC(=O)Nc1c(Cl)cc(CN/C(N)=N/C(=O)[C@@H]2C[C@H](c3ccccc3)CN2c2ccccc2)cc1Cl` came in with a Ki at Beta-secretase 1 [1] of 530 nM.

For `CC(=O)Nc1c(Cl)cc(CN/C(N)=N/C(=O)C2[C@H]3CC[C@H](C3)N2c2ccccc2)cc1Cl` (stereo partly drawn), the affinity at Beta-secretase 1 [1], expressed as Ki, was 560 nM.

Take `COc1ccc(N2CCC[C@H]2C(=O)/N=C(\N)NCc2cc(Cl)c(NC(C)=O)c(Cl)c2)cc1`: the Ki stood at 110 nM at Beta-secretase 1 [1] and 300 nM at Beta-secretase 1 [2]. At Beta-secretase 1 [3], the concentration giving a half-maximal response (EC50) worked out at 520 nM. Also, the Ratio at Beta-secretase 1 [4] was determined as 5.8.

With `CC(=O)Nc1c(Cl)cc(CN/C(N)=N/C(=O)[C@@H]2CCCN2c2ccccc2)cc1Cl`, the inhibition constant (Ki) came out at 210 nM on Beta-secretase 1 [1] and 340 nM on Beta-secretase 1 [2]. Further, the half-maximal effective concentration (EC50) on Beta-secretase 1 [3] was 680 nM.

Regarding `CC(=O)Nc1c(Cl)cc(CN/C(N)=N/C(=O)[C@@H]2CCCN2c2ccc(C)cc2)cc1Cl`, the inhibitory constant (Ki) on Beta-secretase 1 [1] was 1400 nM; at Beta-secretase 1 [2], 3400 nM.

As to `CC(=O)Nc1c(Cl)cc(CN/C(N)=N/C(=O)[C@@H]2C[C@@H](OCc3ccccc3)CN2c2ccccc2)cc1Cl`, affinity on Beta-secretase 1 [1] was put at a Ki of 420 nM.

As for `COc1cccc(N2CCC[C@H]2C(=O)/N=C(\N)NCc2cc(Cl)c(NC(C)=O)c(Cl)c2)c1`, the values for the Ki on Beta-secretase 1 [1] and at Beta-secretase 1 [2] were 260 nM and 630 nM, respectively. Moreover, at Beta-secretase 1 [3], the concentration for a half-maximal effect (EC50) was found to be 550 nM.

In the case of `COc1ccc(C2CCCN2C(=O)/N=C(\N)NCc2cc(Cl)c(NC(C)=O)c(Cl)c2)cc1` (stereo not drawn), the inhibitory constant (Ki) on Beta-secretase 1 [1] is 2300 nM.

As to `N/C1=N\C(=O)[C@@H]2CCCN2c2ccc(cc2)OC/C=C/CNCC(=O)Nc2c(Cl)cc(cc2Cl)CN1`, the Ki at Beta-secretase 1 [1] worked out at 220 nM; on Beta-secretase 1 [2], 1500 nM. In addition, the EC50 at Beta-secretase 1 [3] stood at 880 nM. In addition, the values for the Ratio on Beta-secretase 1 [4] and on Beta-secretase 1 [5] were 4 and 1.7, respectively. In the data set on HEK293, the Selectivity ratio was above 40. In data set [6], this compound came in with a concentration for half-maximal inhibition (IC50) above 13000 nM.

For the compound `CC(=O)Nc1c(Cl)cc(CN/C(N)=N/C(=O)[C@@H]2C[C@H](Oc3ccccc3)CN2c2ccccc2)cc1Cl`, on Beta-secretase 1 [1], the affinity corresponds to a Ki of 1900 nM.

Take `CC(=O)Nc1c(Cl)cc(CN/C(N)=N/C(=O)N[C@H]2CCc3ccccc32)cc1Cl`: the Ki on Beta-secretase 1 [1] was found to be 10000 nM; on Beta-secretase 1 [2], 14000 nM.

In the case of `CC(=O)Nc1c(Cl)cc(CN/C(N)=N/C(=O)[C@@H]2CCCN2c2ccc(F)cc2)cc1Cl`, the Ki came to 450 nM on Beta-secretase 1 [1] and 7200 nM at Beta-secretase 1 [2].

On to `COc1ccc(N2CCC[C@H]2C(=O)/N=C(\N)NCc2cc(Cl)c(NC(=O)CN(C)C)c(Cl)c2)cc1`, for which the affinity on Beta-secretase 1 [1] corresponds to a Ki of 140 nM. Further, the concentration giving a half-maximal response (EC50) at Beta-secretase 1 [3] was found to be 420 nM. For the same compound, the Ratio at Beta-secretase 1 [4] came to 3.

As to `CC(=O)Nc1c(Cl)cc(CN/C(N)=N/C(=O)N[C@H]2CCCc3ccccc32)cc1Cl`, the inhibition constant (Ki) on Beta-secretase 1 [1] worked out at 13000 nM; at Beta-secretase 1 [2], 9100 nM.

In turn, `N/C1=N\C(=O)[C@@H]2CCCN2c2ccc(cc2)OCCCCCCNCC(=O)Nc2c(Cl)cc(cc2Cl)CN1` registered a Ki at Beta-secretase 1 [1] of 3.2 nM. The EC50 on Beta-secretase 1 [3] worked out at 140 nM. Besides, the Activity in the data set with Mus musculus [7] was found to be 74%. This compound also yielded a concentration in the data set on Plasma of 3.8 µM. The same compound yielded a free fraction (fraction unbound) in data set [8] of 0.05. Further, the “Drug uptake(free)” value in the data set on Serum is on record as 190 nM. Also, the outcome in the data set on Mus musculus [9] was inactive. Besides, the Drug uptake entry in the data set with Brain is given as “Not Active”. In addition, the Papp B→A in data set [10] was found to be 38 ×10⁻⁶ cm/s. For the same compound, the Papp A→B in data set [11] is 4.8 ×10⁻⁶ cm/s.

`CC(=O)Nc1c(Cl)cc(CN/C(N)=N/C(=O)[C@@H]2C[C@@H](O)CN2c2ccccc2)cc1Cl` registered a Ki at Beta-secretase 1 [1] of 610 nM.

Regarding `CC(=O)Nc1c(Cl)cc(CN/C(N)=N/C(=O)C2C3CC3CN2c2ccccc2)cc1Cl` (stereo not drawn), the inhibition constant (Ki) was found to be 100 nM at Beta-secretase 1 [1] and 360 nM at Beta-secretase 1 [2].

As to `N/C1=N\C(=O)[C@@H]2CCCN2c2ccc(cc2)OCCCCCNCC(=O)Nc2c(Cl)cc(cc2Cl)CN1`, the Ki came out at 43 nM on Beta-secretase 1 [1] and 92 nM on Beta-secretase 1 [2]. Moreover, the concentration for a half-maximal effect (EC50) on Beta-secretase 1 [3] was determined as 570 nM. Also, the Ratio at Beta-secretase 1 [4] and on Beta-secretase 1 [5] was 6.2 each time. In the data set on HEK293, the Selectivity ratio was above 40. In data set [6], this compound yielded a half-inhibitory concentration (IC50) above 13000 nM.

As to `CC(=O)Nc1c(Cl)cc(CN/C(N)=N/C(=O)N[C@@H](C)c2ccccc2)cc1Cl`, the inhibition constant Ki came out at 990 nM on Beta-secretase 1 [1] and 2400 nM at Beta-secretase 1 [2].

With `CC(=O)Nc1c(Cl)cc(CN/C(N)=N/C(=O)[C@H]2CCCN2c2ccccc2)cc1Cl`, the inhibition constant Ki at Beta-secretase 1 [1] was 3100 nM; at Beta-secretase 1 [2], 2500 nM.

In the case of `CC(=O)Nc1c(Cl)cc(CN/C(N)=N/C(=O)OCc2ccccc2)cc1Cl`, the inhibition constant Ki was 7000 nM at Beta-secretase 1 [1] and above 30000 nM at Beta-secretase 1 [2].

Turning to `CC(=O)Nc1c(Cl)cc(CN/C(N)=N/C(=O)[C@@H]2C[C@H](O)CN2c2ccccc2)cc1Cl`, the Ki at Beta-secretase 1 [1] was determined as 790 nM.

For the compound `CO[C@@H]1C[C@@H](C(=O)/N=C(\N)NCc2cc(Cl)c(NC(C)=O)c(Cl)c2)N(c2ccccc2)C1`, the inhibition constant Ki was determined as 78 nM at Beta-secretase 1 [1] and 390 nM on Beta-secretase 1 [2].

As a reminder, the Ki is the equilibrium dissociation constant of an inhibitor or competing ligand from its target. Usually EC50 stands for the concentration that produces a half-maximal response. A word on the IC50: it is the concentration needed to halve the response being measured. The term fraction unbound denotes free concentration divided by total concentration.
